Each compound was assayed against IRAK4 (Homo sapiens (Human), UniProt Q9NWZ3) (assay: In vitro IRAK4 phosphorylation activity assay). Settings: [γ-33P]-ATP, myelin basic protein substrate, 40 minutes at room temperature; categories.
Chain of IRAK4 (Q9NWZ3 whole entry): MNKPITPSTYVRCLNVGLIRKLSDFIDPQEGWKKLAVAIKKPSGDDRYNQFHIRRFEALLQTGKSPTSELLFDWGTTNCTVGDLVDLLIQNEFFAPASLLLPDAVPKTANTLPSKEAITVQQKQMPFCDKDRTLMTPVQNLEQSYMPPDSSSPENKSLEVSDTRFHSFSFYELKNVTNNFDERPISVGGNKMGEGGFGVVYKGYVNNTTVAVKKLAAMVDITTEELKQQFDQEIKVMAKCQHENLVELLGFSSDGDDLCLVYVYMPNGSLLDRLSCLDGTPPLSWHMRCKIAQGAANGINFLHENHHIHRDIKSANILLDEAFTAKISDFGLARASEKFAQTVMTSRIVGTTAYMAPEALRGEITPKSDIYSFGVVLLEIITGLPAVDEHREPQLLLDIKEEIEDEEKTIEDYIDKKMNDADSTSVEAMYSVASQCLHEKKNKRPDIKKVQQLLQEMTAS
Assay type: biochemical
Method: In vitro IRAK4 analysis was performed using N-(1H-imidazol-2-yl)benzamide compounds according to the present invention. All compounds were prepared by dissolving in DMSO. N-(1H-imidazol-2-yl)benzamide compound according to the present invention and other elements for the reaction were added to an assay well. In the standard Kinase Profiler service the preincubation step between the N-(1H-imidazol-2-yl)benzamide compound and kinase was not performed before the reaction.
To the positive control well, all reactants except for the N-(1H-imidazol-2-yl)benzamide compound according to the present invention were added, and DMSO was added to remove the solvent effect. A known control inhibitor having the following structure was added to the blank wells to inhibit kinase activity and establish a base-line.
IRAK4 was incubated with 8 mM MOPS pH 7.0, 0.2 mM EDTA, 0.33 mg/mL myelin basic protein, 10 mM magnesium acetate and [γ-33P]-ATP (specific activity approx. 500 cpm/pmol, concentration as required). The reaction was initiated by the addition of the MgATP mix. After incubation for 40 minutes at room temperature, the reaction was stopped by the addition of 3% phosphoric acid solution. 10 μL of the reaction was then spotted onto a P30 filtermat and washed three times for 5 minutes in 75 mM phosphoric acid and once in methanol prior to drying and scintillation counting.
The results are shown in Table 26 below, where the phosphorylation activity of IC50 values for IRAK4 is shown in categories (A: <50 nM, B: 50-100 nM, C: >100 nM).
For `O=C(CCCc1cn(-c2ccccc2)c(NC(=O)c2cccc(-c3cn[nH]c3)c2)n1)Nc1ccc(F)cc1` [Example 64, N-(4-(4-((4-fluorophenyl)amino)-4-oxobutyl)-1-phenyl-1H-imidazol-2-yl)-3-(1H-pyrazol-4-yl)benzamide], the IC50 was under 50 nM.
For `O=C(CCCc1cn(-c2ccccc2)c(NC(=O)c2cccc(-c3cn[nH]c3)c2)n1)Nc1ccccc1F` [Example 65, N-(4-(4-((2-fluorophenyl)amino)-4-oxobutyl)-1-phenyl-1H-imidazol-2-yl)-3-(1H-pyrazol-4-yl)benzamide], the IC50 was under 50 nM.
With `O=C(CCCc1cn(-c2ccccc2)c(NC(=O)c2cccc(-c3cn[nH]c3)c2)n1)Nc1ccc(F)cc1F` [Example 66, N-(4-(4-((2,4-difluorophenyl)amino)-4-oxobutyl)-1-phenyl-1H-imidazol-2-yl)-3-(1H-pyrazol-4-yl)benzamide] the IC50 was under 50 nM.
`C[Si](C)(C)CCOCn1cc(-c2cccc(C(=O)Nc3nc(CCCC(=O)NC4CC4)cn3-c3ccccc3)c2)cn1` [Example 67, N-(4-(4-(cyclopropylamino)-4-oxobutyl)-1-phenyl-1H-imidazol-2-yl)-3-(1-((2-(trimethylsilyl)ethoxy)methyl)-1H-pyrazol-4-yl)benzamide] was tested, and the IC50 was over 100 nM.
For `O=C(CCCc1cn(-c2ccccc2)c(NC(=O)c2cccc(-c3cn[nH]c3)c2)n1)NC1CC1` [Example 68, N-(4-(4-(cyclopropylamino)-4-oxobutyl)-1-phenyl-1H-imidazol-2-yl)-3-(1H-pyrazol-4-yl)benzamide], the IC50 was under 50 nM.
In the case of `O=C(CCCc1cn(-c2ccccc2)c(NC(=O)c2cccc(-c3cn[nH]c3)c2)n1)NC1CCC1` [Example 69, N-(4-(4-(cyclobutylamino)-4-oxobutyl)-1-phenyl-1H-imidazol-2-yl)-3-(1H-pyrazol-4-yl)benzamide], the IC50 is reported as under 50 nM.
Work on `CC(C)OC(=O)CCCc1cn(-c2ccccc2)c(NC(=O)c2cccc(-c3cn[nH]c3)c2)n1` [Example 70, isopropyl 4-(2-(3-(1H-pyrazol-4-yl)benzamido)-1-phenyl-1H-imidazol-4-yl)butanoate] yielded an IC50 of under 50 nM.
`CN(C(=O)CCCc1cn(-c2ccccc2)c(NC(=O)c2cccc(-c3cn[nH]c3)c2)n1)C1CC1` [Example 71, N-(4-(4-(cyclopropyl(methyl)amino)-4-oxobutyl)-1-phenyl-1H-imidazol-2-yl)-3-(1H-pyrazol-4-yl)benzamide] was tested, and the IC50 was under 50 nM.
For `CCOC(C)n1cc(-c2cccc(C(=O)Nc3nc(CCCC(=O)NC4CC4)cn3-c3ccccc3)c2)cn1` (stereo not shown) [Example 72, N-(4-(4-(cyclopropylamino)-4-oxobutyl)-1-phenyl-1H-imidazol-2-yl)-3-(1-(1-ethoxyethyl)-1H-pyrazol-4-yl)benzamide], the IC50 was over 100 nM.
Compound `CCOC(C)(C)n1cc(-c2cccc(C(=O)Nc3nc(CCCC(=O)NC4CC4)cn3-c3ccccc3)c2)cn1` [Example 73, N-(4-(4-(cyclopropylamino)-4-oxobutyl)-1-phenyl-1H-imidazol-2-yl)-3-(1-(2-ethoxypropan-2-yl)-1H-pyrazol-4-yl)benzamide] has an IC50 of 50 to 100 nM.
For `O=C(CCCCc1cn(-c2ccccc2)c(NC(=O)c2cccc(-c3cn[nH]c3)c2)n1)Nc1ccccc1` [Example 76, N-(4-(5-oxo-5-(phenylamino)pentyl)-1-phenyl-1H-imidazol-2-yl)-3-(1H-pyrazol-4-yl)benzamide], the IC50 was under 50 nM.
For `COC(=O)CCCCc1cn(-c2ccccc2)c(NC(=O)c2cccc(-c3cn[nH]c3)c2)n1` [Example 77, methyl 5-(2-(3-(1H-pyrazol-4-yl)benzamido)-1-phenyl-1H-imidazol-4-yl)pentanoate], the IC50 was under 50 nM.
`O=C(O)CCCCc1cn(-c2ccccc2)c(NC(=O)c2cccc(-c3cn[nH]c3)c2)n1` [Example 78, 5-(2-(3-(1H-pyrazol-4-yl)benzamido)-1-phenyl-1H-imidazol-4-yl)pentanoic acid] was tested, and the IC50 was under 50 nM.
`O=C(Nc1nc(CCCCC(=O)N2CCCCC2)cn1-c1ccccc1)c1cccc(-c2cn[nH]c2)c1` [Example 79, N-(4-(5-oxo-5-(piperidin-1-yl)pentyl)-1-phenyl-1H-imidazol-2-yl)-3-(1H-pyrazol-4-yl)benzamide] was tested, and the IC50 was under 50 nM.
With `CNC(=O)CCCCc1cn(-c2ccccc2)c(NC(=O)c2cccc(-c3cn[nH]c3)c2)n1` [Example 80, N-(4-(5-(methylamino)-5-oxopentyl)-1-phenyl-1H-imidazol-2-yl)-3-(1H-pyrazol-4-yl)benzamide] the IC50 was under 50 nM.
`C[C@@H]1CCC[C@H](C)N1C(=O)CCCCc1cn(-c2ccccc2)c(NC(=O)c2cccc(-c3cn[nH]c3)c2)n1` [Example 81, N-(4-(5-((2R,6S)-2,6-dimethylpiperidin-1-yl)-5-oxopentyl)-1-phenyl-1H-imidazol-2-yl)-3-(1H-pyrazol-4-yl)benzamide] gave an IC50 of under 50 nM.
`C[C@H]1CCCCN1C(=O)CCCCc1cn(-c2ccccc2)c(NC(=O)c2cccc(-c3cn[nH]c3)c2)n1` [Example 82, (S)—N-(4-(5-(2-methylpiperidin-1-yl)-5-oxopentyl)-1-phenyl-1H-imidazol-2-yl)-3-(1H-pyrazol-4-yl)benzamide] gave an IC50 of 50 to 100 nM.
In the case of `C[C@@H]1CCCCN1C(=O)CCCCc1cn(-c2ccccc2)c(NC(=O)c2cccc(-c3cn[nH]c3)c2)n1` [Example 83, (R)—N-(4-(5-(2-methylpiperidin-1-yl)-5-oxopentyl)-1-phenyl-1H-imidazol-2-yl)-3-(1H-pyrazol-4-yl)benzamide], the IC50 is reported as under 50 nM.
With `COC[C@@H]1CCCN1NC(=O)CCCCc1cn(-c2ccccc2)c(NC(=O)c2cccc(-c3cn[nH]c3)c2)n1` [Example 84, (S)—N-(4-(5-((2-(methoxymethyl)pyrrolidin-1-yl)amino)-5-oxopentyl)-1-phenyl-1H-imidazol-2-yl)-3-(1H-pyrazol-4-yl)benzamide] the IC50 was under 50 nM.
In the case of `COC[C@H]1CCCN1NC(=O)CCCCc1cn(-c2ccccc2)c(NC(=O)c2cccc(-c3cn[nH]c3)c2)n1` [Example 85, (R)—N-(4-(5-((2-(methoxymethyl)pyrrolidin-1-yl)amino)-5-oxopentyl)-1-phenyl-1H-imidazol-2-yl)-3-(1H-pyrazol-4-yl)benzamide], the IC50 is reported as under 50 nM.
`COC[C@@H]1CCCN1C(=O)CCCCc1cn(-c2ccccc2)c(NC(=O)c2cccc(-c3cn[nH]c3)c2)n1` [Example 86, (S)—N-(4-(5-(2-(methoxymethyl)pyrrolidin-1-yl)-5-oxopentyl)-1-phenyl-1H-imidazol-2-yl)-3-(1H-pyrazol-4-yl)benzamide] gave an IC50 of under 50 nM.
`COC[C@H]1CCCN1C(=O)CCCCc1cn(-c2ccccc2)c(NC(=O)c2cccc(-c3cn[nH]c3)c2)n1` [Example 87, (R)—N-(4-(5-(2-(methoxymethyl)pyrrolidin-1-yl)-5-oxopentyl)-1-phenyl-1H-imidazol-2-yl)-3-(1H-pyrazol-4-yl)benzamide] gave an IC50 of under 50 nM.
For `O=C(CCCCc1cn(-c2ccccc2)c(NC(=O)c2cccc(-c3cn[nH]c3)c2)n1)NC1CC1` [Example 88, N-(4-(5-(cyclopropylamino)-5-oxopentyl)-1-phenyl-1H-imidazol-2-yl)-3-(1H-pyrazol-4-yl)benzamide], the IC50 was under 50 nM.
For `O=C(CCCCc1cn(-c2ccccc2)c(NC(=O)c2cccc(-c3cn[nH]c3)c2)n1)NC1CCCCC1` [Example 89, N-(4-(5-(cyclohexylamino)-5-oxopentyl)-1-phenyl-1H-imidazol-2-yl)-3-(1H-pyrazol-4-yl)benzamide], the IC50 was under 50 nM.
`O=C(CCCCCc1cn(-c2ccccc2)c(NC(=O)c2cccc(-c3cn[nH]c3)c2)n1)Nc1ccccc1` [Example 90, N-(4-(6-oxo-6-(phenylamino)hexyl)-1-phenyl-1H-imidazol-2-yl)-3-(1H-pyrazol-4-yl)benzamide] was tested, and the IC50 was under 50 nM.
For `COC(=O)CCCCCc1cn(-c2ccccc2)c(NC(=O)c2cccc(-c3cn[nH]c3)c2)n1` [Example 91, methyl 6-(2-(3-(1H-pyrazol-4-yl)benzamido)-1-phenyl-1H-imidazol-4-yl)hexanoate], the IC50 was under 50 nM.
For `O=C(O)CCCCCc1cn(-c2ccccc2)c(NC(=O)c2cccc(-c3cn[nH]c3)c2)n1` [Example 92, 6-(2-(3-(1H-pyrazol-4-yl)benzamido)-1-phenyl-1H-imidazol-4-yl)hexanoic acid], the IC50 was under 50 nM.
With `O=C(Nc1nc(CCCCCC(=O)N2CCCCC2)cn1-c1ccccc1)c1cccc(-c2cn[nH]c2)c1` [Example 93, N-(4-(6-oxo-6-(piperidin-1-yl)hexyl)-1-phenyl-1H-imidazol-2-yl)-3-(1H-pyrazol-4-yl)benzamide] the IC50 was under 50 nM.
With `CNC(=O)CCCCCc1cn(-c2ccccc2)c(NC(=O)c2cccc(-c3cn[nH]c3)c2)n1` [Example 94, N-(4-(6-(methylamino)-6-oxohexyl)-1-phenyl-1H-imidazol-2-yl)-3-(1H-pyrazol-4-yl)benzamide] the IC50 was under 50 nM.
For `C[C@H]1CCCCN1C(=O)CCCCCc1cn(-c2ccccc2)c(NC(=O)c2cccc(-c3cn[nH]c3)c2)n1` [Example 95, (S)—N-(4-(6-(2-methylpiperidin-1-yl)-6-oxohexyl)-1-phenyl-1H-imidazol-2-yl)-3-(1H-pyrazol-4-yl)benzamide], the IC50 was under 50 nM.
In the case of `C[C@@H]1CCCCN1C(=O)CCCCCc1cn(-c2ccccc2)c(NC(=O)c2cccc(-c3cn[nH]c3)c2)n1` [Example 96, (R)—N-(4-(6-(2-methylpiperidin-1-yl)-6-oxohexyl)-1-phenyl-1H-imidazol-2-yl)-3-(1H-pyrazol-4-yl)benzamide], the IC50 is reported as under 50 nM.

From US12534452B2, “N-(1H-imidazol-2-yl)benzamide compound and pharmaceutical composition comprising the same as active ingredient” (KAINOS MEDICINE, INC., priority 2019, dated 2026)
